Entries after “also recorded” stand apart in the source; their conditions may differ. Where two headings read alike, the source gives them in different places.
Experiments:
[1] = system: patients with CHF; details: cited from earlier work
[2] = system: tracheas from asthmatic mice; details: asthmatic mice chronically treated; cited from earlier work
[3] = system: asthmatic mice; experiment: Airway resistance (Raw) response to methacholine in murine model of asthma; type: in vivo, Balb/cJ mice; details: for airway hyperresponsiveness / airway responsiveness to methacholine provocation (airway resistance, Raw): asthmatic mice; for airway hyperresponsiveness: methacholine challenge, chronic treatment 7 days, 20 mg/kg (metoprolol 3× daily s.c.; timolol in chow)
Description: Balb/cJ mice aged 6 weeks (Jackson Animal Laboratory, Bar Harbor, Maine) were housed under specific pathogen-free conditions and fed a chicken ovalbumin-free diet. The Animal Research Ethics Boards of both the University of Houston and the Baylor College of Medicine approved all experiments reported here. […] Mice were sensitized with subcutaneous injection of 25 μg of ovalbumin adsorbed to aluminum hydroxide on protocol days 2, 9, and 16. Subsequently, mice were given 50 μL of saline solution containing 25 μg of ovalbumin intranasally, on a daily basis, from protocol days 23 through 27. A group of ovalbumin-sensitized saline-challenged mice serves as controls for systemic sensitization and respiratory challenges with ovalbumin. Prior to intranasal administrations, mice were sedated with halothane vapor.
To examine the effects of duration of β-adrenergic ligand therapy on the phenotype of the murine model of asthma, the experimental drugs were administered either acutely or chronically to different groups of asthmatic mice.
Asthmatic mice on acute therapy were given a single intravenous bolus infusion of either β-adrenergic drug or normal saline on protocol day 28, 15 minutes before airway responsiveness to methacholine was determined. […] […] […] These concentrations were chosen based on those producing therapeutic effects in mice in previously published studies. The non-asthmatic mice were fed normal chow.
On protocol day 28, mice were anesthetized, tracheotomized, and connected to a computer-controlled small animal ventilator (Flexivent, Scientific Respiratory Equipment, Inc., Montreal, Canada). Airway resistance (Raw) was measured using the forced oscillation technique. The cellular composition of bronchoalveolar lavage fluid (BALF) was also determined.
To induce airway constriction, a solution containing 150 μg/mL of acetyl-α-methylcholine chloride (methacholine) (Sigma Chemical, St. Louis, Mo.) was infused intravenously at constant rates using a syringe infusion pump (Raze Scientific Instruments, Stanford, Conn.). […] Each methacholine dose was administered for 3 to 5 minutes, during which data were sampled at 1-minute intervals and then averaged.
The complex input impedance of the respiratory system was computed and the value of the real part of respiratory system impedance at 19.75 Hz was taken to reflect the magnitude of airway resistance (Raw). To examine the degree of airway responsiveness of each animal, the values for Raw as a function of methacholine doses were plotted. The largest value for Raw achieved in response to methacholine stimulation was referred to as Rawpeak. For mice that achieved a plateau in the methacholine dose-Raw response curve, the ED50 was calculated by linear interpolation using the GraphPad Prism4 (GraphPad Software, Inc.). […] The Bonferroni test was used to examine the statistical differences between experimental groups. The effects of acute drug treatments on baseline respiratory system mechanics were assessed using a two-tailed paired t-test. A value of P<0.05 was considered significant.
For these experiments, salbutamol was used for chronic administration at 0.5 mg/kg/day with a minipump and for acute administration at 0.15 mg/kg by i.v. bolus 15 minutes prior to challenge. Alprenolol was used at a high dose of 7200 ppm in chow or at a low dose of 720 ppm in chow. Carvedilol was used at a high dose of 2400 ppm in chow or at a low dose of 720 ppm in chow.
The airway resistance (Raw) is plotted as cm H2O ml^−1 s.

[4] = healthy volunteers; after 9 d of treatment versus first treatment day; cited from earlier work
[5] = cited from earlier work
[6] = cited from earlier work; remark: listed apart in the source
[7] = biological target: β2; details: read-out: K1 values for β2 (first value); cited from earlier work
[8] = in vivo; cited from earlier work
[9] = biological target: β3 (Homo sapiens, UniProt P13945); details: read-out: K1 values for β3; cited from earlier work
β3, sequence (P13945 whole entry): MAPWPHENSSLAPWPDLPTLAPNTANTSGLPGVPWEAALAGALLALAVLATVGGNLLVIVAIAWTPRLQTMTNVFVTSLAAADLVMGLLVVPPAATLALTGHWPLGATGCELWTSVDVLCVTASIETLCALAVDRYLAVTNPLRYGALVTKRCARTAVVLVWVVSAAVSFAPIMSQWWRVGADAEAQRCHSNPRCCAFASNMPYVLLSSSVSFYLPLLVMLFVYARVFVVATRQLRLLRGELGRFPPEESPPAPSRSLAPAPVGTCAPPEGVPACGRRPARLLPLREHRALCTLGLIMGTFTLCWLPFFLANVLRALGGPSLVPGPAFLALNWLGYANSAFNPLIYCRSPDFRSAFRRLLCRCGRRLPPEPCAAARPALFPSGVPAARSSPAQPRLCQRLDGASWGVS

[10] = long-term administration; cited from earlier work
[11] = biological target: β2-adrenergic receptor (Mus musculus, UniProt P18762); type: in vivo, mice; details: for level of the β2-adrenergic receptor: chronic treatment; for Bmax (receptor density) / βmax (receptor density): lung membranes, mean±SEM, n=3-5; for Bmax (receptor density): drug treatment 15 Minutes; for βmax (receptor density): drug treatment 28 Days
β2-adrenergic receptor, sequence (P18762 whole entry): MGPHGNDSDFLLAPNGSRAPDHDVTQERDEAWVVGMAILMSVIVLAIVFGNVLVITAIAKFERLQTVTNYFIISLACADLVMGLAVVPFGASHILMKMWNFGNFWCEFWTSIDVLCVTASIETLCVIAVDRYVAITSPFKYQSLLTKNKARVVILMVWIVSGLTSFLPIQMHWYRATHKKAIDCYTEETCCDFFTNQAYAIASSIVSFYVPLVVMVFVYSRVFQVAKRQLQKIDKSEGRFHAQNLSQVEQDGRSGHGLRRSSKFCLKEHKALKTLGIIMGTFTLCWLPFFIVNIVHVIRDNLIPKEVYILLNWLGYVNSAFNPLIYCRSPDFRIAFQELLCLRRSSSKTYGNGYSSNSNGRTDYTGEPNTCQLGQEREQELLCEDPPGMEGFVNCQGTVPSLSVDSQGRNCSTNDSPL
Description: β2-adrenergic receptor numbers were measured in asthmatic mice as follows. […] Mice were sacrificed and lung membranes were isolated as follows. Frozen lung tissue was homogenized in an ice-cold buffer containing 0.32 M sucrose and 25 mM Tris (pH 7.4) using a polytron (Pro 200, Pro Scientific, Inc.). The homogenate was centrifuged at 1000×g for 10 min at 4° C. The resulting supernatant was centrifuged at 40,000×g for 20 min at 4° C. The pellet was suspended in an ice-cold 25 mM Tris-HCl buffer (pH 7.4) and centrifuged at 40,000'g for 20 min at 4° C. The final pellet was suspended in 200 μL of 25 mM Tris-HCl (pH 7.4); membrane protein concentration was determined by BCA protein assay kit. […] The incubation was done at 37° C. for 2 h and terminated by rapid vacuum filtration through glass fiber filters. The filters were washed three times with 250 μL of cold wash buffer (25 mM Tris-HCl, pH 7.4) and the radioactivity determined in a counter. […] Receptor densities are expressed as femtomoles of sites per milligram of protein. Bmax is determined by nonlinear regression of the saturation binding curves.

[12] = system: antigen-induced bronchoconstriction; details: acute administration; cited from earlier work
[13] = system: sensitized and allergen-challenged mice; experiment: Aminophylline on acute airway effects of nadolol; type: in vivo; details: 100 mg/kg i.p. during methacholine infusion; untreated and nadolol-treated mice
Description: Mice were sensitized to the allergen ovalbumin as described in Example 1.
At time point 1 (time=−10 min) baseline airway resistance of the mice was determined. At time point 2 (time=−5 min) methacholine was infused into mice to reach their EC70.

[14] = in humans, in the presence of nadolol; cited from earlier work
[15] = system: β-adrenergic receptor; details: U.S. Pat. No. 6,284,800; cited from earlier work
[16] = acute: single intravenous bolus 15 minutes before methacholine
[17] = chronic administration, 28 days (in chow; salbutamol by osmotic minipump)

Structure (SMILES): CC(C)(Cc1c[nH]c2ccccc12)NCC(O)COc1ccccc1C#N (stereo not shown) [Bucindolol, bucindolol]
- clinical outcome (mortality, benefit over placebo) [1]: failed to demonstrate any benefit over placebo

Structure (SMILES): Cc1ccc(OCC(O)C(C)NC(C)C)c2c1CCC2 (stereo not shown) [ICI-118,551]
- rank of effectiveness on contraction of excised tracheas in response to methacholine [2]: then ICI-118,551

Structure (SMILES): CC(C)(C)NC[C@H](O)COc1nsnc1N1CCOCC1 [timolol]
- airway hyperresponsiveness [3]: effective in reducing airway hyperresponsiveness

Structure (SMILES): COCCc1ccc(OCC(O)CNC(C)C)cc1 (stereo not shown) [metoprolol]
- airway hyperresponsiveness [3]: effective in reducing airway hyperresponsiveness
- clinical outcome (mortality, benefit over placebo) [1]: significant mortality reduction

Structure (SMILES): O=S(=O)(Nc1ccc(CCNC[C@H](O)c2cccnc2)cc1)c1ccc(-c2nc(-c3ccc(C(F)(F)F)cc3)cs2)cc1 [L-796568]
- acute increases in plasma fatty acid concentrations [4]: completely absent after 9 d of treatment

Structure (SMILES): CC(C)(C)NCC(O)c1cc(O)cc(O)c1 (stereo not shown) [terbutaline]
- increase of bioavailability by the oral component ([5]; from an MDI): 6.7%
- absorption through the lung ([5]; healthy smokers versus healthy nonsmokers): more rapidly

Structure (SMILES): C[C@@H]1C[C@H]2[C@@H]3C[C@H](F)C4=CC(=O)C=C[C@]4(C)[C@@]3(F)[C@@H](O)C[C@]2(C)[C@@]1(O)C(=O)SCF [fluticasone]
- first-pass hepatic metabolism of the systemically absorbed drug ([6]; in vivo): almost complete

Structure (SMILES): Cc1ccc(Cl)c(OCC(O)CNC(C)(C)C)c1 (stereo not shown) [bupranolol]
- Ki [7]: 1.7 nM
- half-life [8]: 1.5 h
- Ki [9]: 50 nM

Structure (SMILES): OCc1cc(C(O)CNCCCCCCOCCCCc2ccccc2)ccc1O (stereo not shown) [salmeterol]
- time in which the majority of a dose is eliminated, predominantly in the feces ([5]; in vivo): ≤ 72 h
- trial outcome (death rates) [10]: stopped due to increased death rates

Structure (SMILES): CC(C)(C)NCC(O)c1ccc(O)c(CO)c1 (stereo not shown) [Salbutamol, salbutamol]
- Increased β2AR density ([11]; 15 minutes of administration): yes
- Increased β2AR density ([11]; 2 days of administration): no
- Increased β2AR density ([11]; 28 days of administration): no
- level of the β2-adrenergic receptor [11]: slight decrease
- Bmax (receptor density) [11]: 256.5 ± 29.24 femtomoles of sites per milligram of protein
- βmax (receptor density) [11]: 97.0 ± 23.02 femtomoles of sites per milligram of protein
- Decreased Raw ([3]; 15 minutes of administration): yes
- Decreased Raw ([3]; 2 days of administration): no
- Decreased Raw ([3]; 28 days of administration): no
- airway responsiveness to methacholine provocation (airway resistance, Raw) [3, 16]: reduced the level of airway responsiveness to methacholine provocation
- airway responsiveness to methacholine provocation (airway resistance, Raw) [3, 17]: no protection was observed
- bioavailability of inhaled drug ([5]; 10 patients with cystic fibrosis versus healthy adults): greater

Structure (SMILES): CC(C)NC[C@H](O)COc1cccc2ccccc12 [L-form of propranolol, propranolol]
- specific lung resistance [12]: increased specific lung resistance

Structure (SMILES): Cn1c(=O)c2[nH]cnc2n(C)c1=O [aminophylline]
- airway resistance after administration [13]: significant and sustained drop in airway resistance

Structure (SMILES): C=CCc1ccccc1OCC(O)CNC(C)C (stereo not shown) [Alprenolol, alprenolol]
- Increased β2AR density ([11]; 15 minutes of administration): yes
- Increased β2AR density ([11]; 2 days of administration): no
- Increased β2AR density ([11]; 28 days of administration): no
- level of the β2-adrenergic receptor [11]: slight decrease
- Bmax (receptor density) [11]: 299.5 ± 12.19 femtomoles of sites per milligram of protein
- βmax (receptor density) [11]: 179.2 ± 53.05 femtomoles of sites per milligram of protein
- rank of effectiveness on contraction of excised tracheas in response to methacholine [2]: most effective
- Decreased Raw ([3]; 15 minutes of administration): yes
- Decreased Raw ([3]; 2 days of administration): no
- Decreased Raw ([3]; 28 days of administration): no
- airway responsiveness to methacholine provocation (airway resistance, Raw) [3, 16]: airway responsiveness was diminished
- airway responsiveness to methacholine provocation (airway resistance, Raw) [3, 17]: does not reduce airway hyperresponsiveness; also recorded: provides no benefit upon chronic administration

Structure (SMILES): CCCC1O[C@@H]2C[C@H]3[C@@H]4CCC5=CC(=O)C=C[C@]5(C)[C@H]4[C@@H](O)C[C@]3(C)[C@]2(C(=O)CO)O1 (stereo partly shown) [budesonide]
- plasma clearance of the 2 enantiomers per kilogram of bodyweight, higher in children than adults ([6]; 6 children with asthma versus 11 healthy adults): about 50%
- plasma clearance relative to the average clearance of prednisolone ([6]; in vivo): about 10 fold
- systemic availability of the swallowed fraction ([6]; in vivo): 10.7±4.3%

Structure (SMILES): CN[C@@H](C)[C@H](O)c1ccccc1 [ephedrine]
- level of thermogenesis relative to the ephedrine-untreated level [14]: 40%

Structure (SMILES): CC(C)NC[C@@H](O)COc1cccc2ccccc12 [D-propranolol]
- antigen-induced bronchoconstriction and airway hyperresponsiveness [12]: beneficial in inhibiting antigen-induced bronchoconstriction and reducing airway hyperresponsiveness
- activity with respect to β-adrenergic receptors [15]: inactive
